Counter-ions that a name gives are not always drawn. Like-named read-outs stand apart in the source and are kept apart here. Where a SMILES comes first, the peptide text is derived from it. [ ]: non-standard residue; d: D form. The star is where a group is joined. X4 = O=C(COc1c(-c2csc(N3CCOCC3)n2)ccc(F)c1F)NCCCCN*; X3 = O=C(NCCCCCCN*)c1cccc2sc(N3CCOCC3)nc12; Dip = N[C@H](C(=O)O)C(c1ccccc1)c1ccccc1; Chg = N[C@H](C(=O)O)C1CCCCC1; NMeA = CN[C@@H](C)C(=O)O
Tested on: 22Rv1
Assay: 22Rv1 cell proliferation assay (Experimental Example 1, cell count)
Type: cell-based
Settings: Homo sapiens, 22Rv1, read-out: 22Rv1 cell count decrease at 10 μM for 48 hours
Protocol: The human prostate cancer cell line, 22Rv1 has been reported to express a high level of AR-V7. […] Standard culture media was RPMI-1640 supplemented with 10% fetal bovine serum. The test compound initially was dissolved in DMSO at 50 mM. This stock solution was then diluted as needed for the indicated concentrations. […]
In the Table: (+)—the cell count decreased between 0 and 20%; (++)—the cell count decreased […]; (+++)—the cell count decreased by more than 50%.

[1] = 10 μM (method: four days), read-out: 22Rv1 cell count decrease at 10 μM

Compound | inhibition at 10 µM [1] | inhibition at 10 µM
O=C1CCC(N2C(=O)c3cccc(NCCOCCOCCOCCOc4c(-c5csc(N6CCOCC6)n5)ccc(F)c4F)c3C2=O)C(=O)N1 (stereo not drawn) [Example 13, 4-((2-(2-(2-(2-(2,3-difluoro-6-(2-morpholinothiazol-4-yl)phenoxy)ethoxy)ethoxy)ethoxy)ethyl)amino)-2-(2,6-dioxopiperidin-3-yl)isoindoline-1,3-dione] | 0 to 20% | –
O=C(COc1cccc2c1C(=O)N(C1CCC(=O)NC1=O)C2=O)NCCOCCOCCOCCOCCOc1c(-c2csc(N3CCOCC3)n2)ccc(F)c1F (stereo not drawn) [Example 14, N-(14-(2,3-difluoro-6-(2-morpholinothiazol-4-yl)phenoxy)-3,6,9,12-tetraoxatetradecyl)-2-((2-(2,6-dioxopiperidin-3-yl)-1,3-dioxoisoindolin-4-yl)oxy)acetamide] | 0 to 20% | –
Cc1ncsc1-c1ccc([C@H](C)NC(=O)[C@@H]2C[C@@H](O)CN2C(=O)[C@@H](NC(=O)CCCNC(=O)COc2c(-c3csc(N4CCOCC4)n3)ccc(F)c2F)C(C)(C)C)cc1 [Example 15, (2S,4R)-1-((S)-2-(4-(2-(2,3-difluoro-6-(2-morpholinothiazol-4-yl)phenoxy)acetamido)butanamido)-3,3-dimethylbutanoyl)-4-hydroxy-N-((S)-1-(4-(4-methylthiazol-5-yl)phenyl)ethyl)pyrrolidine-2-carboxamide] | < 50% | –
Cc1ncsc1-c1ccc([C@H](C)NC(=O)[C@@H]2C[C@@H](O)CN2C(=O)[C@@H](NC(=O)CCCCCNC(=O)COc2c(-c3csc(N4CCOCC4)n3)ccc(F)c2F)C(C)(C)C)cc1 [Example 17, (2S,4R)-1-((S)-2-(6-(2-(2,3-difluoro-6-(2-morpholinothiazol-4-yl)phenoxy)acetamido)hexanamido)-3,3-dimethylbutanoyl)-4-hydroxy-N-((S)-1-(4-(4-methylthiazol-5-yl)phenyl)ethyl)pyrrolidine-2-carboxamide] | < 50% | –
Cc1ncsc1-c1ccc([C@H](C)NC(=O)[C@@H]2C[C@@H](O)CN2C(=O)[C@@H](NC(=O)CCCCCCNC(=O)COc2c(-c3csc(N4CCOCC4)n3)ccc(F)c2F)C(C)(C)C)cc1 [Example 18, (2S,4R)-1-((S)-2-(7-(2-(2,3-difluoro-6-(2-morpholinothiazol-4-yl)phenoxy)acetamido)heptanamido)-3,3-dimethylbutanoyl)-4-hydroxy-N-((S)-1-(4-(4-methylthiazol-5-yl)phenyl)ethyl)pyrrolidine-2-carboxamide] | < 50% | –
Cc1ncsc1-c1ccc([C@H](C)NC(=O)[C@@H]2C[C@@H](O)CN2C(=O)[C@@H](NC(=O)COCCCNC(=O)COc2c(-c3csc(N4CCOCC4)n3)ccc(F)c2F)C(C)(C)C)cc1 [Example 19, (2S,4R)-1-((S)-2-(2-(3-(2-(2,3-difluoro-6-(2-morpholinothiazol-4-yl)phenoxy)acetamido)propoxy)acetamido)-3,3-dimethylbutanoyl)-4-hydroxy-N-((S)-1-(4-(4-methylthiazol-5-yl)phenyl)ethyl)pyrrolidine-2-carboxamide] | < 50% | –
Cc1ncsc1-c1ccc([C@H](C)NC(=O)[C@@H]2C[C@@H](O)CN2C(=O)[C@@H](NC(=O)COCCOCCNC(=O)COc2c(-c3csc(N4CCOCC4)n3)ccc(F)c2F)C(C)(C)C)cc1 [Example 20, (2S,4R)-1-((S)-2-(tert-butyl)-14-(2,3-difluoro-6-(2-morpholinothiazol-4-yl)phenoxy)-4,13-dioxo-6,9-dioxa-3,12-diazatetradecanoyl)-4-hydroxy-N-((S)-1-(4-(4-methylthiazol-5-yl)phenyl)ethyl)pyrrolidine-2-carboxamide] | < 50% | –
Cc1ncsc1-c1ccc([C@H](C)NC(=O)[C@@H]2C[C@@H](O)CN2C(=O)[C@@H](NC(=O)CCCCCCCOc2c(-c3csc(N4CCOCC4)n3)ccc(F)c2F)C(C)(C)C)cc1 [Example 21, (2S,4R)-1-((S)-2-(8-(2,3-difluoro-6-(2-morpholinothiazol-4-yl)phenoxy)octanamido)-3,3-dimethylbutanoyl)-4-hydroxy-N-((S)-1-(4-(4-methylthiazol-5-yl)phenyl)ethyl)pyrrolidine-2-carboxamide] | < 50% | –
Cc1ncsc1-c1ccc([C@H](CC(=O)NCCCCNC(=O)COc2c(-c3csc(N4CCOCC4)n3)ccc(F)c2F)NC(=O)[C@@H]2C[C@@H](O)CN2C(=O)[C@@H](NC(=O)C2(F)CC2)C(C)(C)C)cc1 [Example 22, (2S,4R)-N-((S)-3-((4-(2-(2,3-difluoro-6-(2-morpholinothiazol-4-yl)phenoxy)acetamido)butyl)amino)-1-(4-(4-methylthiazol-5-yl)phenyl)-3-oxopropyl)-1-((S)-2-(1-fluorocyclopropane-1-carboxamido)-3,3-dimethylbutanoyl)-4-hydroxypyrrolidine-2-carboxamide] | 0 to 20% | –
Cc1ncsc1-c1ccc([C@H](CC(=O)NCCCCCCNC(=O)COc2c(-c3csc(N4CCOCC4)n3)ccc(F)c2F)NC(=O)[C@@H]2C[C@@H](O)CN2C(=O)[C@@H](NC(=O)C2(F)CC2)C(C)(C)C)cc1 [Example 23, (2S,4R)-N-((S)-3-((6-(2-(2,3-difluoro-6-(2-morpholinothiazol-4-yl)phenoxy)acetamido)hexyl)amino)-1-(4-(4-methylthiazol-5-yl)phenyl)-3-oxopropyl)-1-((S)-2-(1-fluorocyclopropane-1-carboxamido)-3,3-dimethylbutanoyl)-4-hydroxypyrrolidine-2-carboxamide] | 0 to 20% | –
CN[C@@H](C)C(=O)N[C@H](C(=O)N1CCC[C@H]1C(=O)N[C@H](C(=O)NCCCCNC(=O)COc1c(-c2csc(N3CCOCC3)n2)ccc(F)c1F)C(c1ccccc1)c1ccccc1)C1CCCCC1 [Example 25, (S)-1-((S)-2-cyclohexyl-2-((S)-2-(methylamino)propanamido)acetyl)-N-((S)-1-((4-(2-(2,3-difluoro-6-(2-morpholinothiazol-4-yl)phenoxy)acetamido)butyl)amino)-1-oxo-3,3-diphenylpropan-2-yl)pyrrolidine-2-carboxamide] (H-[NMeA][Chg]P[Dip]-X4) | – | > 50%
COc1cc(C(=O)NCCOCCOCCOc2c(-c3csc(N4CCOCC4)n3)ccc(F)c2F)ccc1NC(=O)[C@@H]1N[C@@H](CC(C)(C)C)[C@](C#N)(c2ccc(Cl)cc2F)[C@H]1c1cccc(Cl)c1F [Example 27, (2R,3S,4R,5S)-3-(3-chloro-2-fluorophenyl)-4-(4-chloro-2-fluorophenyl)-4-cyano-N-(4-((2-(2-(2-(2,3-difluoro-6-(2-morpholinothiazol-4-yl)phenoxy)ethoxy)ethoxy)ethyl)carbamoyl)-2-methoxyphenyl)-5-neopentylpyrrolidine-2-carboxamide] | > 50% | –
COc1cc(C(=O)NCCCCNC(=O)COc2c(-c3csc(N4CCOCC4)n3)ccc(F)c2F)ccc1NC(=O)[C@@H]1N[C@@H](CC(C)(C)C)[C@](C#N)(c2ccc(Cl)cc2F)[C@H]1c1cccc(Cl)c1F [Example 28, (2R,3S,4R,5S)-3-(3-chloro-2-fluorophenyl)-4-(4-chloro-2-fluorophenyl)-4-cyano-N-(4-((4-(2-(2,3-difluoro-6-(2-morpholinothiazol-4-yl)phenoxy)acetamido)butyl)carbamoyl)-2-methoxyphenyl)-5-neopentylpyrrolidine-2-carboxamide] | > 50% | –
COc1cc(C(=O)NCCCCCCNC(=O)COc2c(-c3csc(N4CCOCC4)n3)ccc(F)c2F)ccc1NC(=O)[C@@H]1N[C@@H](CC(C)(C)C)[C@](C#N)(c2ccc(Cl)cc2F)[C@H]1c1cccc(Cl)c1F [Example 29, (2R,3S,4R,5S)-3-(3-chloro-2-fluorophenyl)-4-(4-chloro-2-fluorophenyl)-4-cyano-N-(4-((6-(2-(2,3-difluoro-6-(2-morpholinothiazol-4-yl)phenoxy)acetamido)hexyl)carbamoyl)-2-methoxyphenyl)-5-neopentylpyrrolidine-2-carboxamide] | < 50% | –
Cc1ncsc1-c1ccc([C@H](C)NC(=O)[C@@H]2C[C@@H](O)CN2C(=O)[C@@H](NC(=O)CCCCNC(=O)c2cccc3sc(N4CCOCC4)nc23)C(C)(C)C)cc1 [Example 30, N-(5-(((S)-1-((2S,4R)-4-hydroxy-2-(((S)-1-(4-(4-methylthiazol-5-yl)phenyl)ethyl)carbamoyl)pyrrolidin-1-yl)-3,3-dimethyl-1-oxobutan-2-yl)amino)-5-oxopentyl)-2-morpholinobenzo[d]thiazole-4-carboxamide] | < 50% | –
CN[C@@H](C)C(=O)N[C@H](C(=O)N1CCC[C@H]1C(=O)N[C@H](C(=O)NCCCCCCNC(=O)c1cccc2sc(N3CCOCC3)nc12)C(c1ccccc1)c1ccccc1)C1CCCCC1 [Example 31, N-(6-((S)-2-((S)-1-((S)-2-cyclohexyl-2-((S)-2-(methylamino)propanamido)acetyl)pyrrolidine-2-carboxamido)-3,3-diphenylpropanamido)hexyl)-2-morpholinobenzo[d]thiazole-4-carboxamide] (H-[NMeA][Chg]P[Dip]-X3) | – | > 50%
O=C1CCC(N2C(=O)c3cccc(NCCCCCCNC(=O)c4nc(Br)n(-c5csc(N6CCOCC6)n5)c4Br)c3C2=O)C(=O)N1 (stereo not drawn) [Example 33, 2,5-dibromo-N-(6-((2-(2,6-dioxopiperidin-3-yl)-1,3-dioxoisoindolin-4-yl)amino)hexyl)-1-(2-morpholinothiazol-4-yl)-1H-imidazole-4-carboxamide] | 0 to 20% | –
CN[C@@H](C)C(=O)N[C@H](C(=O)N1Cc2cc(OCCOCCOCCOc3c(-c4csc(N5CCOCC5)n4)ccc(F)c3F)ccc2C[C@H]1C(=O)N[C@@H]1CCCc2ccccc21)C(C)(C)C [Example 36, (S)-7-(2-(2-(2-(2,3-difluoro-6-(2-morpholinothiazol-4-yl)phenoxy)ethoxy)ethoxy)ethoxy)-2-((S)-3,3-dimethyl-2-((S)-2-(methylamino)propanamido)butanoyl)-N-((R)-1,2,3,4-tetrahydronaphthalen-1-yl)-1,2,3,4-tetrahydroisoquinoline-3-carboxamide dihydrochloride] | > 50% | –
